The source made the active and inactive calls. The rule behind the calls is not given here. Peptide text beside a SMILES is read from it.
Columns and labels:
Plasmodium falciparum [1] = assay: (§1) Inhibition of Plasmodium falciparum recombinant refolded falcipain 2 activity using ZFR-AMC as a substrate after 30 mins by fluorimetric assay
Plasmodium falciparum [2] = assay: Inhibition of Plasmodium falciparum recombinant falcipain 2 using fluorogenic ZFR-AMC substrate at 5 uM after 30 mins by fluorimetric assay
Plasmodium falciparum [3] = assay: Antimalarial activity against Plasmodium falciparum infected in human RBC assessed as swollen food vacuole at early trophozoite stage at 200 nM after 48 hrs by Giemsa staining based microscopy; type: functional, organism-based
Plasmodium falciparum [4] = assay: Antimalarial activity against Plasmodium falciparum infected in human RBC assessed as clumps of malarial pigment at 200 nM after 48 hrs by Giemsa staining based microscopy; type: functional, organism-based
Plasmodium falciparum [5] = assay: Antimalarial activity against Plasmodium falciparum infected in human RBC assessed as abnormal schizonts at 200 nM after 48 hrs by Giemsa staining based microscopy; type: functional, organism-based
[6] = as §1

Row | Compound | inhibition (Plasmodium falciparum [1]) | inhibition (Plasmodium falciparum [2]) [%] | Activity (Plasmodium falciparum [3]) | Activity (Plasmodium falciparum [4]) | Activity (Plasmodium falciparum [5]) | Ki [6] [nM]
1 | CC[C@H](C)[C@H](NC(=O)CNC(=O)[C@H](CO)NC(=O)[C@@H](NC(=O)[C@H](CC(C)C)NC(=O)[C@H](CCC(N)=O)NC(=O)[C@H]1CC[C@@H](NC(=O)[C@@H]2CCCN2C(=O)[C@H](C)NC(=O)CNC(=O)[C@H](CC(C)C)NC(=O)[C@H](CC(C)C)NC(=O)[C@@H](N)CCCNC(=N)N)CC1)C(C)C)C(N)=O (HELM PEPTIDE1{R.L.L.G.A.P.[O=C([C@H]1CC[C@@H](N[*:1])CC1)[*:2]].Q.L.V.S.G.I.[am]}$$$$V2.0) | – | 50 | Active | Active | Active | –
2 | CC[C@H](C)[C@H](NC(=O)CNC(=O)[C@H](CO)NC(=O)[C@@H](NC(=O)[C@H](CC(C)C)NC(=O)[C@H](CCC(N)=O)NC(=O)[C@H](CCCNC(=N)N)NC(=O)[C@H]1CC[C@@H](NC(=O)[C@@H](NC(=O)[C@@H]2CCCN2C(=O)[C@H](C)NC(=O)CNC(=O)[C@H](CC(C)C)NC(=O)[C@H](CC(C)C)NC(=O)[C@@H](N)CCCNC(=N)N)C(C)C)CC1)C(C)C)C(=O)NCCC(=O)NCCC(=O)N1CCC[C@H]1C(=O)N[C@@H](Cc1c[nH]c2ccccc12)C(N)=O (HELM PEPTIDE1{R.L.L.G.A.P.V.[O=C([C@H]1CC[C@@H](N[*:1])CC1)[*:2]].R.Q.L.V.S.G.I.[bAla].[bAla].P.W.[am]}$$$$V2.0) | – | 60 | Active | Active | Active | 2500
3 | CC[C@H](C)[C@H](NC(=O)CNC(=O)[C@H](CO)NC(=O)[C@@H](NC(=O)[C@H](CC(C)C)NC(=O)[C@@H]1CSSC[C@H](NC(=O)[C@H](C)NC(=O)CNC(=O)[C@H](CC(C)C)NC(=O)[C@H](CC(C)C)NC(=O)[C@@H](N)CCCNC(=N)N)C(=O)NCCCC(=O)N1)C(C)C)C(N)=O (HELM PEPTIDE1{R.L.L.G.A.C.[O=C(CCCN[*:1])[*:2]].C.L.V.S.G.I.[am]}$PEPTIDE1,PEPTIDE1,6:R3-8:R3$$$V2.0) | – | 39 | – | – | – | –
4 | CC[C@H](C)[C@H](NC(=O)CNC(=O)[C@H](CO)NC(=O)[C@@H](NC(=O)[C@H](CC(C)C)NC(=O)[C@H](CCC(N)=O)NC(=O)CCCNC(=O)[C@@H]1CCCN1C(=O)[C@H](C)NC(=O)CNC(=O)[C@H](CC(C)C)NC(=O)[C@H](CC(C)C)NC(=O)[C@@H](N)CCCNC(=N)N)C(C)C)C(N)=O (HELM PEPTIDE1{R.L.L.G.A.P.[O=C(CCCN[*:1])[*:2]].Q.L.V.S.G.I.[am]}$$$$V2.0) | – | 44 | Active | Active | Active | –
5 | CC[C@H](C)[C@H](NC(=O)CNC(=O)[C@H](CO)NC(=O)[C@@H](NC(=O)[C@H](CC(C)C)NC(=O)[C@H](CCC(N)=O)NC(=O)[C@H](CCCNC(=N)N)NC(=O)CCCNC(=O)[C@@H](NC(=O)[C@@H]1CCCN1C(=O)[C@H](C)NC(=O)CNC(=O)[C@H](CC(C)C)NC(=O)[C@H](CC(C)C)NC(=O)[C@@H](N)CCCNC(=N)N)C(C)C)C(C)C)C(=O)NCCC(=O)NCCC(=O)N1CCC[C@H]1C(=O)N[C@@H](Cc1c[nH]c2ccccc12)C(N)=O (HELM PEPTIDE1{R.L.L.G.A.P.V.[O=C(CCCN[*:1])[*:2]].R.Q.L.V.S.G.I.[bAla].[bAla].P.W.[am]}$$$$V2.0) | – | 49 | Active | Active | Active | –
6 | CC[C@H](C)[C@H](NC(=O)CNC(=O)[C@H](CO)NC(=O)[C@@H](NC(=O)[C@H](CC(C)C)NC(=O)[C@H](CCC(N)=O)NC(=O)CCCNC(=O)[C@@H]1CCCN1C(=O)[C@H](C)NC(=O)CNC(=O)[C@H](CC(C)C)NC(=O)[C@H](CC(C)C)NC(=O)[C@@H](N)CCCNC(=N)N)C(C)C)C(=O)NCCC(=O)NCCC(=O)N1CCC[C@H]1C(=O)N[C@@H](Cc1c[nH]c2ccccc12)C(N)=O (HELM PEPTIDE1{R.L.L.G.A.P.[O=C(CCCN[*:1])[*:2]].Q.L.V.S.G.I.[bAla].[bAla].P.W.[am]}$$$$V2.0) | – | 32 | – | – | – | –
7 | CC[C@H](C)[C@H](NC(=O)CNC(=O)[C@H](CO)NC(=O)[C@@H](NC(=O)[C@H](CC(C)C)NC(=O)[C@H](CCC(N)=O)NC(=O)[C@H](CCCNC(=N)N)NC(=O)[C@H]1CC[C@@H](NC(=O)[C@@H](NC(=O)[C@@H]2CCCN2C(=O)[C@H](C)NC(=O)CNC(=O)[C@H](CC(C)C)NC(=O)[C@H](CC(C)C)NC(=O)[C@@H](N)CCCNC(=N)N)C(C)C)CC1)C(C)C)C(N)=O (HELM PEPTIDE1{R.L.L.G.A.P.V.[O=C([C@H]1CC[C@@H](N[*:1])CC1)[*:2]].R.Q.L.V.S.G.I.[am]}$$$$V2.0) | – | 63 | Active | Active | Active | 2000
8 | CC[C@H](C)[C@H](NC(=O)CNC(=O)[C@H](CO)NC(=O)[C@@H](NC(=O)[C@H](CC(C)C)NC(=O)[C@H](CCC(N)=O)NC(=O)[C@H]1CC[C@@H](NC(=O)[C@@H]2CCCN2C(=O)[C@H](C)NC(=O)CNC(=O)[C@H](CC(C)C)NC(=O)[C@H](CC(C)C)NC(=O)[C@@H](N)CCCNC(=N)N)CC1)C(C)C)C(=O)NCCC(=O)NCCC(=O)N1CCC[C@H]1C(=O)N[C@@H](Cc1c[nH]c2ccccc12)C(N)=O (HELM PEPTIDE1{R.L.L.G.A.P.[O=C([C@H]1CC[C@@H](N[*:1])CC1)[*:2]].Q.L.V.S.G.I.[bAla].[bAla].P.W.[am]}$$$$V2.0) | – | 57 | Active | Active | Active | –
9 | CC[C@H](C)[C@H](NC(=O)CNC(=O)[C@H](CO)NC(=O)[C@@H](NC(=O)[C@H](CC(C)C)NC(=O)[C@H](CCC(N)=O)NC(=O)[C@H](CCCNC(=N)N)NC(=O)CCCNC(=O)[C@@H](NC(=O)[C@@H]1CCCN1C(=O)[C@H](C)NC(=O)CNC(=O)[C@H](CC(C)C)NC(=O)[C@H](CC(C)C)NC(=O)[C@@H](N)CCCNC(=N)N)C(C)C)C(C)C)C(N)=O (HELM PEPTIDE1{R.L.L.G.A.P.V.[O=C(CCCN[*:1])[*:2]].R.Q.L.V.S.G.I.[am]}$$$$V2.0) | – | 57 | Active | Active | Active | 2500

Further lines, with some results ahead:

Row | inhibition (Plasmodium falciparum [1]) | inhibition (Plasmodium falciparum [2]) [%] | Compound | Activity (Plasmodium falciparum [3]) | Activity (Plasmodium falciparum [4]) | Activity (Plasmodium falciparum [5]) | Ki [6] [nM]
10 | Active | – | CC(=O)N[C@@H](CC(C)C)C(=O)N[C@@H](CC(C)C)C(=O)N[C@H](C=O)CCCNC(=N)N | – | – | – | –
11 | – | 5 | H-RLLGAPV-NH2 | Active | Active | Active | –
12 | – | 10 | Ac-RQLVSGI-NH2 | – | – | – | –
13 | – | 39 | CC[C@H](C)[C@H](NC(=O)CNC(=O)[C@H](CO)NC(=O)[C@@H](NC(=O)[C@H](CC(C)C)NC(=O)[C@H](CCC(N)=O)NC(=O)[C@@H]1CSSC[C@H](NC(=O)[C@@H]2CCCN2C(=O)[C@H](C)NC(=O)CNC(=O)[C@H](CC(C)C)NC(=O)[C@H](CC(C)C)NC(=O)[C@@H](N)CCCNC(=N)N)C(=O)NCCCC(=O)N1)C(C)C)C(N)=O (HELM PEPTIDE1{R.L.L.G.A.P.C.[O=C(CCCN[*:1])[*:2]].C.Q.L.V.S.G.I.[am]}$PEPTIDE1,PEPTIDE1,7:R3-9:R3$$$V2.0) | – | – | – | –
14 | Active | – | CC(C)C[C@H](NC(=O)[C@H]1O[C@@H]1C(=O)O)C(=O)NCCCCN=C(N)N | – | – | – | –
15 | – | 39 | CC[C@H](C)[C@H](NC(=O)CNC(=O)[C@H](CO)NC(=O)[C@@H](NC(=O)[C@H](CC(C)C)NC(=O)[C@H](CCC(N)=O)NC(=O)[C@@H]1CSSC[C@H](NC(=O)[C@@H]2CCCN2C(=O)[C@H](C)NC(=O)CNC(=O)[C@H](CC(C)C)NC(=O)[C@H](CC(C)C)NC(=O)[C@@H](N)CCCNC(=N)N)C(=O)NCCCC(=O)N1)C(C)C)C(=O)NCCC(=O)NCCC(=O)N1CCC[C@H]1C(=O)N[C@@H](Cc1c[nH]c2ccccc12)C(N)=O (HELM PEPTIDE1{R.L.L.G.A.P.C.[O=C(CCCN[*:1])[*:2]].C.Q.L.V.S.G.I.[bAla].[bAla].P.W.[am]}$PEPTIDE1,PEPTIDE1,7:R3-9:R3$$$V2.0) | – | – | – | –

Reference: ChEMBL document CHEMBL1795236, “Design and synthesis of protein-protein interaction mimics as Plasmodium falciparum cysteine protease, falcipain-2 inhibitors” (Eur J Med Chem, 2011)
